In PubChem BioAssay (NCI):
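Growth conditions: 96-well plates. Treatment: test compound, 48 hours, 5 concentrations. Analysis: linear interpolation between bracketing concentrations; unreached endpoints set to highest concentration. TGI: total growth inhibition.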

Key:
Assay in all cases: NCI-60 cell line screen, 48 h
SK-MEL-2 melanoma = test system: SK-MEL-2 melanoma
NCI/ADR-RES ovarian = test system: NCI/ADR-RES ovarian
NCI-H460 lung = test system: NCI-H460 lung
KM12 colon = test system: KM12 colon
SF-295 CNS = test system: SF-295 CNS
UACC-257 melanoma = test system: UACC-257 melanoma
NCI-H226 lung = test system: NCI-H226 lung
786-0 renal = test system: 786-0 renal
OVCAR-4 ovarian = test system: OVCAR-4 ovarian
DU-145 prostate = test system: DU-145 prostate
UACC-62 melanoma = test system: UACC-62 melanoma
SK-MEL-5 melanoma = test system: SK-MEL-5 melanoma
HCT-116 colon = test system: HCT-116 colon
CAKI-1 renal = test system: CAKI-1 renal
U251 CNS = test system: U251 CNS
UO-31 renal = test system: UO-31 renal
MALME-3M melanoma = test system: MALME-3M melanoma
HCT-15 colon = test system: HCT-15 colon
SNB-75 CNS = test system: SNB-75 CNS
MDA-MB-231 breast = test system: MDA-MB-231 breast
COLO 205 colon = test system: COLO 205 colon
MDA-MB-435 = test system: MDA-MB-435
HCC-2998 colon = test system: HCC-2998 colon
NCI-H522 lung = test system: NCI-H522 lung
LOX IMVI melanoma = test system: LOX IMVI melanoma
RXF 393 renal = test system: RXF 393 renal
HT29 colon = test system: HT29 colon
IGROV1 ovarian = test system: IGROV1 ovarian
OVCAR-3 ovarian = test system: OVCAR-3 ovarian
T-47D breast = test system: T-47D breast
K-562 leukemia = test system: K-562 leukemia
MOLT-4 leukemia = test system: MOLT-4 leukemia
MCF7 breast = test system: MCF7 breast
SR leukemia = test system: SR leukemia
PC-3 prostate = test system: PC-3 prostate
HOP-62 NSCLC = test system: HOP-62 NSCLC
A498 renal = test system: A498 renal
MDA-N = test system: MDA-N
CCRF-CEM leukemia = test system: CCRF-CEM leukemia
SN12C renal = test system: SN12C renal
A549 NSCLC = test system: A549 NSCLC
SF-268 CNS = test system: SF-268 CNS
OVCAR-5 ovarian = test system: OVCAR-5 ovarian
SW-620 colon = test system: SW-620 colon
TK-10 renal = test system: TK-10 renal
NCI-H23 lung = test system: NCI-H23 lung
SF-539 CNS = test system: SF-539 CNS
HS 578T breast = test system: HS 578T breast
OVCAR-8 ovarian = test system: OVCAR-8 ovarian
RPMI-8226 leukemia = test system: RPMI-8226 leukemia
HOP-92 NSCLC = test system: HOP-92 NSCLC
HL-60(TB) leukemia = test system: HL-60(TB) leukemia
SNB-19 CNS = test system: SNB-19 CNS
SK-OV-3 ovarian = test system: SK-OV-3 ovarian
BT-549 breast = test system: BT-549 breast
EKVX NSCLC = test system: EKVX NSCLC
M14 melanoma = test system: M14 melanoma
SK-MEL-28 melanoma = test system: SK-MEL-28 melanoma
ACHN renal = test system: ACHN renal

## Nc1ncc(C=O)c(NCC2(CO)CCC2)n1
SK-MEL-2 melanoma
  TGI: > 100 µM
NCI/ADR-RES ovarian
  TGI: > 100 µM
NCI-H460 lung
  TGI: > 100 µM
KM12 colon
  TGI: > 100 µM
SF-295 CNS
  TGI: > 100 µM
UACC-257 melanoma
  TGI: > 100 µM
NCI-H226 lung
  TGI: > 100 µM
786-0 renal
  TGI: > 100 µM
OVCAR-4 ovarian
  TGI: > 100 µM
DU-145 prostate
  TGI: > 100 µM
UACC-62 melanoma
  TGI: 81.2 µM
SK-MEL-5 melanoma
  TGI: 86.9 µM
HCT-116 colon
  TGI: > 100 µM
CAKI-1 renal
  TGI: 44.3 µM
U251 CNS
  TGI: > 100 µM
UO-31 renal
  TGI: > 100 µM
MALME-3M melanoma
  TGI: > 100 µM
HCT-15 colon
  TGI: > 100 µM
SNB-75 CNS
  TGI: > 100 µM
MDA-MB-231 breast
  TGI: > 100 µM
COLO 205 colon
  TGI: > 100 µM
MDA-MB-435
  TGI: > 100 µM
HCC-2998 colon
  TGI: > 100 µM
NCI-H522 lung
  TGI: > 100 µM
LOX IMVI melanoma
  TGI: > 100 µM
RXF 393 renal
  TGI: > 100 µM
HT29 colon
  TGI: > 100 µM
IGROV1 ovarian
  TGI: > 100 µM
OVCAR-3 ovarian
  TGI: > 100 µM
T-47D breast
  TGI: 88.9 µM
K-562 leukemia
  TGI: > 100 µM
MOLT-4 leukemia
  TGI: > 100 µM
MCF7 breast
  TGI: > 100 µM
SR leukemia
  TGI: > 100 µM
PC-3 prostate
  TGI: > 100 µM
HOP-62 NSCLC
  TGI: > 100 µM
A498 renal
  TGI: > 100 µM
MDA-N
  TGI: > 100 µM
CCRF-CEM leukemia
  TGI: > 100 µM
SN12C renal
  TGI: > 100 µM
A549 NSCLC
  TGI: > 100 µM
SF-268 CNS
  TGI: > 100 µM
OVCAR-5 ovarian
  TGI: > 100 µM
SW-620 colon
  TGI: > 100 µM
TK-10 renal
  TGI: 73.8 µM
NCI-H23 lung
  TGI: > 100 µM
SF-539 CNS
  TGI: > 100 µM
HS 578T breast
  TGI: > 100 µM
OVCAR-8 ovarian
  TGI: > 100 µM
RPMI-8226 leukemia
  TGI: > 100 µM
HOP-92 NSCLC
  TGI: 87.8 µM
HL-60(TB) leukemia
  TGI: > 100 µM

## CC(C)(C)OC(=O)[C@@H]1ON2O[C@H](OC3CCCC3(c3ccccc3)c3ccccc3)C[C@H]3OC(=O)[C@@H]1[C@H]32 (stereo not given in full)
SK-MEL-2 melanoma
  TGI: 51.8 µM
NCI/ADR-RES ovarian
  TGI: > 100 µM
NCI-H460 lung
  TGI: > 100 µM
KM12 colon
  TGI: > 100 µM
SF-295 CNS
  TGI: > 100 µM
UACC-257 melanoma
  TGI: > 100 µM
NCI-H226 lung
  TGI: > 100 µM
786-0 renal
  TGI: > 100 µM
SNB-19 CNS
  TGI: > 100 µM
OVCAR-4 ovarian
  TGI: 54.3 µM
DU-145 prostate
  TGI: > 100 µM
UACC-62 melanoma
  TGI: > 100 µM
SK-MEL-5 melanoma
  TGI: > 100 µM
HCT-116 colon
  TGI: > 100 µM
CAKI-1 renal
  TGI: > 100 µM
U251 CNS
  TGI: > 100 µM
UO-31 renal
  TGI: > 100 µM
HCT-15 colon
  TGI: > 100 µM
SNB-75 CNS
  TGI: > 100 µM
MDA-MB-231 breast
  TGI: > 100 µM
COLO 205 colon
  TGI: > 100 µM
MDA-MB-435
  TGI: > 100 µM
NCI-H522 lung
  TGI: > 100 µM
LOX IMVI melanoma
  TGI: 96.6 µM
RXF 393 renal
  TGI: 92.1 µM
SK-OV-3 ovarian
  TGI: > 100 µM
HT29 colon
  TGI: > 100 µM
IGROV1 ovarian
  TGI: > 100 µM
BT-549 breast
  TGI: > 100 µM
OVCAR-3 ovarian
  TGI: 54.1 µM
T-47D breast
  TGI: > 100 µM
K-562 leukemia
  TGI: > 100 µM
MCF7 breast
  TGI: > 100 µM
SR leukemia
  TGI: > 100 µM
EKVX NSCLC
  TGI: > 100 µM
PC-3 prostate
  TGI: > 100 µM
HOP-62 NSCLC
  TGI: > 100 µM
MDA-N
  TGI: > 100 µM
CCRF-CEM leukemia
  TGI: > 100 µM
SN12C renal
  TGI: > 100 µM
A549 NSCLC
  TGI: > 100 µM
M14 melanoma
  TGI: > 100 µM
SF-268 CNS
  TGI: > 100 µM
OVCAR-5 ovarian
  TGI: > 100 µM
SW-620 colon
  TGI: > 100 µM
TK-10 renal
  TGI: > 100 µM
NCI-H23 lung
  TGI: > 100 µM
SF-539 CNS
  TGI: > 100 µM
SK-MEL-28 melanoma
  TGI: > 100 µM
ACHN renal
  TGI: > 100 µM

## S=C(N/N=C/c1ccccn1)N1CC2CCC(CC2)C1
SK-MEL-2 melanoma
  TGI: 15.5 µM
NCI-H460 lung
  TGI: 0.207 µM
KM12 colon
  TGI: 7.76 µM
SF-295 CNS
  TGI: 11.1 µM
UACC-257 melanoma
  TGI: < 0.039 µM
NCI-H226 lung
  TGI: 1.53 µM
786-0 renal
  TGI: 0.242 µM
SNB-19 CNS
  TGI: 14.3 µM
OVCAR-4 ovarian
  TGI: 20.4 µM
DU-145 prostate
  TGI: 12 µM
UACC-62 melanoma
  TGI: 0.531 µM
HCT-116 colon
  TGI: 3.88 µM
CAKI-1 renal
  TGI: 1.82 µM
U251 CNS
  TGI: 4.6 µM
UO-31 renal
  TGI: 2.24 µM
MALME-3M melanoma
  TGI: 11.4 µM
HCT-15 colon
  TGI: 14.9 µM
SNB-75 CNS
  TGI: 0.868 µM
MDA-MB-435
  TGI: 15.1 µM
HCC-2998 colon
  TGI: 18.6 µM
NCI-H522 lung
  TGI: 3.64 µM
LOX IMVI melanoma
  TGI: 12.4 µM
RXF 393 renal
  TGI: 3.19 µM
SK-OV-3 ovarian
  TGI: 5.7 µM
HT29 colon
  TGI: 17.3 µM
BT-549 breast
  TGI: 12.5 µM
OVCAR-3 ovarian
  TGI: 13.9 µM
EKVX NSCLC
  TGI: 7.05 µM
PC-3 prostate
  TGI: 13 µM
HOP-62 NSCLC
  TGI: 0.461 µM
A498 renal
  TGI: 2.93 µM
MDA-N
  TGI: 13.1 µM
SN12C renal
  TGI: 0.645 µM
A549 NSCLC
  TGI: 14.2 µM
M14 melanoma
  TGI: 0.209 µM
SF-268 CNS
  TGI: 14.8 µM
OVCAR-5 ovarian
  TGI: 18 µM
SW-620 colon
  TGI: 14.5 µM
TK-10 renal
  TGI: 1.82 µM
NCI-H23 lung
  TGI: 7.7 µM
SF-539 CNS
  TGI: 0.287 µM
HS 578T breast
  TGI: 30.6 µM
OVCAR-8 ovarian
  TGI: 0.252 µM
SK-MEL-28 melanoma
  TGI: 17.4 µM
ACHN renal
  TGI: 2.15 µM
HOP-92 NSCLC
  TGI: 13.9 µM
HL-60(TB) leukemia
  TGI: 0.143 µM

## COc1ccc(-c2oc3cc(OC(C)=O)cc(OC(C)=O)c3c(=O)c2OC)cc1
NCI/ADR-RES ovarian
  TGI: 36 µM
NCI-H460 lung
  TGI: 37.5 µM
SF-295 CNS
  TGI: 37.8 µM
UACC-257 melanoma
  TGI: 34.7 µM
SNB-19 CNS
  TGI: 79.4 µM
DU-145 prostate
  TGI: 45.2 µM
UACC-62 melanoma
  TGI: 22.7 µM
SK-MEL-5 melanoma
  TGI: 25 µM
HCT-116 colon
  TGI: 44.3 µM
CAKI-1 renal
  TGI: 34.9 µM
U251 CNS
  TGI: 30.6 µM
UO-31 renal
  TGI: 51.7 µM
MALME-3M melanoma
  TGI: 65.6 µM
HCT-15 colon
  TGI: > 100 µM
MDA-MB-231 breast
  TGI: 63.7 µM
COLO 205 colon
  TGI: 33.9 µM
MDA-MB-435
  TGI: 25.4 µM
HCC-2998 colon
  TGI: 32.3 µM
NCI-H522 lung
  TGI: 5.28 µM
LOX IMVI melanoma
  TGI: 27.9 µM
SK-OV-3 ovarian
  TGI: 80.6 µM
HT29 colon
  TGI: 36.3 µM
IGROV1 ovarian
  TGI: 38 µM
OVCAR-3 ovarian
  TGI: 38.6 µM
T-47D breast
  TGI: 57.9 µM
K-562 leukemia
  TGI: 29.4 µM
MOLT-4 leukemia
  TGI: 68.4 µM
MCF7 breast
  TGI: 48.4 µM
SR leukemia
  TGI: 51.5 µM
EKVX NSCLC
  TGI: 47.8 µM
PC-3 prostate
  TGI: 59 µM
HOP-62 NSCLC
  TGI: 42.4 µM
A498 renal
  TGI: 61.1 µM
MDA-N
  TGI: 28.3 µM
CCRF-CEM leukemia
  TGI: 49.6 µM
A549 NSCLC
  TGI: 74.1 µM
M14 melanoma
  TGI: 30.6 µM
SF-268 CNS
  TGI: 46.9 µM
OVCAR-5 ovarian
  TGI: 47.3 µM
SW-620 colon
  TGI: 39.7 µM
TK-10 renal
  TGI: 70.8 µM
OVCAR-8 ovarian
  TGI: 53.6 µM
RPMI-8226 leukemia
  TGI: 38.3 µM
SK-MEL-28 melanoma
  TGI: 35.5 µM
ACHN renal
  TGI: 45.8 µM
HL-60(TB) leukemia
  TGI: 33.9 µM
